The record followed here is ChEMBL document CHEMBL4507275, “Data for DCP probe BI-2545” (2021).

Series [1] has as its target D(2) dopamine receptor (Homo sapiens) (UniProt P14416). In words: D2SH_AGON Cerep selectivity data (BI). Particulars: filed as agonist, Compound concentration 10.0 uM; call rule not given here.
In series [2] the target is T1, Muscarinic acetylcholine receptor M2 (Homo sapiens) (UniProt P08172).
T1 sequence (whole entry): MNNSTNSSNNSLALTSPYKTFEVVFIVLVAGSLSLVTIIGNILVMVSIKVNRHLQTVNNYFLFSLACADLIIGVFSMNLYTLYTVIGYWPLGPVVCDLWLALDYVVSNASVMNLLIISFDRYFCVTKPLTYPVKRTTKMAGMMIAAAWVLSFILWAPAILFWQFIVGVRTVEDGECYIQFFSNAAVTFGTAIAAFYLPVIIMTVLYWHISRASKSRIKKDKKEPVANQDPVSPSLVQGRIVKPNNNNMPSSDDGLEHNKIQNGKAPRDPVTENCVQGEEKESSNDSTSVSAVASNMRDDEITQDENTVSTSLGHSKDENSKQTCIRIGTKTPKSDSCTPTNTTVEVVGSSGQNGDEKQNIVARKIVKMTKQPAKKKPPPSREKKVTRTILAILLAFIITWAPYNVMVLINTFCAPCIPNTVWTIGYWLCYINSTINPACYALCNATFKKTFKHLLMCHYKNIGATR
In words: M2/H Cerep selectivity data (BI). As to conditions: filed as antagonist, Compound concentration 10.0 uM.

For series [3], the target named is Endothelin-1 receptor (Homo sapiens) (UniProt P25101). In words: ETA/H Cerep selectivity data (BI). Particulars: Compound concentration 10.0 uM.
The next series addresses hERG (KCNH2) (Homo sapiens, UniProt Q12809). The series is described as follows: HERG_DOFETILIDE Cerep selectivity data (BI). More on the design: mode of action inhibitor. As to conditions: probe [3H] Dofetilide, compound concentration 10 uM, read-out: % Ctrl.
Series [4] concerns the target Sodium-dependent serotonin transporter (Homo sapiens) (UniProt P31645). In words: SLC6A4/H Cerep selectivity data (BI). Particulars: filed as antagonist, Compound concentration 10.0 uM.
For series [5], the target named is T2, 5-hydroxytryptamine receptor 3A (Homo sapiens) (UniProt P46098).
T2 sequence (whole entry): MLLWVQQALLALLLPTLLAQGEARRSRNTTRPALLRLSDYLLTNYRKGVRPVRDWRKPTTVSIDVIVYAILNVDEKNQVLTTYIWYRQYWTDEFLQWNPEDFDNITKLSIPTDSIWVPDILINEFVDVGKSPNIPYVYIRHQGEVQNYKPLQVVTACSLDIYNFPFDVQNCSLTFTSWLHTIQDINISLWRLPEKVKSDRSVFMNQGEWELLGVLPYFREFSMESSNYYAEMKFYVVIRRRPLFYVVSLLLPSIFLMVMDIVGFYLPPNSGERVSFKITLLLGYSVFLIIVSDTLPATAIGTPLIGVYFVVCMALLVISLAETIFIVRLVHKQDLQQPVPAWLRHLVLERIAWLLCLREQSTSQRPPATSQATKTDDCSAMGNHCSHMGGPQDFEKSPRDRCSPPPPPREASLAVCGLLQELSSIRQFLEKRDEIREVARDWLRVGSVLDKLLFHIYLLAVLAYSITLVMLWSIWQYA
The series is described as follows: 5HT3/H Cerep selectivity data (BI). Particulars: Compound concentration 10.0 uM.

Series [6] addresses Cannabinoid receptor 2 (Homo sapiens) (UniProt P34972). In words: CB2/PERIPH/H Cerep selectivity data (BI). Particulars: Compound concentration 10.0 uM.
Series [7] deals with Gamma-aminobutyric acid receptor subunit alpha-1 (Rattus norvegicus) (UniProt P62813). In words: BZD/CENTR/R Cerep selectivity data (BI). As to conditions: Compound concentration 10.0 uM.
Sequence of Gamma-aminobutyric acid receptor subunit alpha-1 (Rattus norvegicus) (P62813 whole entry): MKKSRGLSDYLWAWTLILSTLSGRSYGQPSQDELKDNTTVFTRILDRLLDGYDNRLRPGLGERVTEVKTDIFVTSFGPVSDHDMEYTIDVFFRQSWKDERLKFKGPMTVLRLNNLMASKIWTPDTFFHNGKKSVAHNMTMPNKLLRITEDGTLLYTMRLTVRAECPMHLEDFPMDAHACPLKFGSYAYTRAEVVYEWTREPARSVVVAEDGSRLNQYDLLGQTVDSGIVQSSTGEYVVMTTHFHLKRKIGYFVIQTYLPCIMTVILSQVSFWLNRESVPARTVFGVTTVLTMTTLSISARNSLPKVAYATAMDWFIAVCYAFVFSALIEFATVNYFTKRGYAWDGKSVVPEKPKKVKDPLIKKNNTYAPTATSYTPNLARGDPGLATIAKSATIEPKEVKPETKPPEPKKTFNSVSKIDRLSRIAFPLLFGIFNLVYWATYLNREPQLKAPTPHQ
Series [8] deals with 5-hydroxytryptamine receptor 2A (Homo sapiens, UniProt P28223). In words: GPCRScan assay: inhibition of 5-HT2A. More on the design: radioligand conc. used [nm] 1.2 – 2.4, parental cells HEKT.
Sequence of 5-hydroxytryptamine receptor 2A (P28223 whole entry): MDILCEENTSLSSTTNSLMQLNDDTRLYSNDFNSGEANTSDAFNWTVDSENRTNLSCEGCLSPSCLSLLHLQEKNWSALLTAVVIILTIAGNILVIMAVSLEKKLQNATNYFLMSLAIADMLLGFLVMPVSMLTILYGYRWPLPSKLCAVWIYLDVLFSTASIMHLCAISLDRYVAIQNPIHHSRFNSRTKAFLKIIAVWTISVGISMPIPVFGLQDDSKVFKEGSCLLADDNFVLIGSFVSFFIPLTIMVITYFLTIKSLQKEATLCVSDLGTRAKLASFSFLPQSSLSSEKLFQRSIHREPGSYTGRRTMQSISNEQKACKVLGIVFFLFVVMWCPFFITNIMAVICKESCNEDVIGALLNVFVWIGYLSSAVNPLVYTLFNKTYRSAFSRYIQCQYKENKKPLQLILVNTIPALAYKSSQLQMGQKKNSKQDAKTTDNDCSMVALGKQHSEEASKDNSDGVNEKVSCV
The target in series [9] is T3, Alpha-2A adrenergic receptor (Homo sapiens) (UniProt P08913).
T3 sequence (whole entry): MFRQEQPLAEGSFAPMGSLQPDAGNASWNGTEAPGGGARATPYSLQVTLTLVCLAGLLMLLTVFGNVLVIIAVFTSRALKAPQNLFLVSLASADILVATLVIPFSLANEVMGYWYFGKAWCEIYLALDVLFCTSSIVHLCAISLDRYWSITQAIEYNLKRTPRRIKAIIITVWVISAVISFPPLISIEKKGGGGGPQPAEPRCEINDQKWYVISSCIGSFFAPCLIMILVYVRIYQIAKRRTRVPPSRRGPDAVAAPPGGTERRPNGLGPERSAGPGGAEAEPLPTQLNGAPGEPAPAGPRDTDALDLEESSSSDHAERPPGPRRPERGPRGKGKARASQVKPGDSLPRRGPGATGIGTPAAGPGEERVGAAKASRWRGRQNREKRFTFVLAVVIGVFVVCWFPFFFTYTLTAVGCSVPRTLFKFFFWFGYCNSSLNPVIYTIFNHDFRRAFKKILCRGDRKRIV
In words: ALPHA2A/HU Cerep selectivity data (BI). Particulars: Compound concentration 10.0 uM.

Series [10] deals with Sigma non-opioid intracellular receptor 1 (Homo sapiens, UniProt Q99720). The series is described as follows: GPCRScan assay: inhibition of Sigma 1. More on the design: radioligand conc. used [nm] 4.0 – 5.0, parental cells HEKT.
Series [11] deals with Mu-type opioid receptor (Homo sapiens) (UniProt P35372). In words: MU/H Cerep selectivity data (BI). Particulars: Compound concentration 10.0 uM.
Series [12] addresses Sodium-dependent noradrenaline transporter (Homo sapiens) (UniProt P23975). The series is described as follows: NEUP/H Cerep selectivity data (BI). Particulars: Compound concentration 10.0 uM.
Series [13] has as its target Prostaglandin G/H synthase 2 (Homo sapiens) (UniProt P35354). The series is described as follows: COX-2 Cerep selectivity data (BI). As to conditions: Compound concentration 10.0 uM.
Series [14] deals with Cannabinoid receptor 1 (Homo sapiens) (UniProt P21554). In words: CB1/CENTR/H Cerep selectivity data (BI). Particulars: Compound concentration 10.0 uM.
Sequence of Cannabinoid receptor 1 (Homo sapiens) (P21554 whole entry): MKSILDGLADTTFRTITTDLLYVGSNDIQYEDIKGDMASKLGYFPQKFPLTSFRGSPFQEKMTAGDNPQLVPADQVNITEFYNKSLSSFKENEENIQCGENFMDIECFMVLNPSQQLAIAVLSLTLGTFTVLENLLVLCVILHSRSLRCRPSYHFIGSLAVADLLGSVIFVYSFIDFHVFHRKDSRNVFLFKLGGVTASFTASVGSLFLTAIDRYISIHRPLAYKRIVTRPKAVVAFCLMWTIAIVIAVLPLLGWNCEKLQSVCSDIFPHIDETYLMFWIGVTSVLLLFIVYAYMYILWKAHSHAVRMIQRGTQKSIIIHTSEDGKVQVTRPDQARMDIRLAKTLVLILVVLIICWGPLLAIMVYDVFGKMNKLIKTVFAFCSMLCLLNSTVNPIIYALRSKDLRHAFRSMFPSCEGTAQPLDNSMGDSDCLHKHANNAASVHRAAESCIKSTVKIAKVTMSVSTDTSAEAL
Series [15] has as its target Tyrosine-protein kinase Lck (Homo sapiens) (UniProt P06239). In words: LCK_CE Cerep selectivity data (BI). As to conditions: Compound concentration 10.0 uM.
Series [16] has as its target Vasopressin V1a receptor (Homo sapiens) (UniProt P37288). The series is described as follows: V1A/HUM Cerep selectivity data (BI). As to conditions: Compound concentration 10.0 uM.
The target in series [17] is cGMP-inhibited 3',5'-cyclic phosphodiesterase 3A (Homo sapiens) (UniProt Q14432). In words: PDE3A Cerep selectivity data (BI). As to conditions: Compound concentration 10.0 uM.
The target in series [18] is D(1A) dopamine receptor (Homo sapiens) (UniProt P21728). The series is described as follows: D1/H Cerep selectivity data (BI). As to conditions: filed as antagonist, Compound concentration 10.0 uM.
Sequence of D(1A) dopamine receptor (Homo sapiens) (P21728 whole entry): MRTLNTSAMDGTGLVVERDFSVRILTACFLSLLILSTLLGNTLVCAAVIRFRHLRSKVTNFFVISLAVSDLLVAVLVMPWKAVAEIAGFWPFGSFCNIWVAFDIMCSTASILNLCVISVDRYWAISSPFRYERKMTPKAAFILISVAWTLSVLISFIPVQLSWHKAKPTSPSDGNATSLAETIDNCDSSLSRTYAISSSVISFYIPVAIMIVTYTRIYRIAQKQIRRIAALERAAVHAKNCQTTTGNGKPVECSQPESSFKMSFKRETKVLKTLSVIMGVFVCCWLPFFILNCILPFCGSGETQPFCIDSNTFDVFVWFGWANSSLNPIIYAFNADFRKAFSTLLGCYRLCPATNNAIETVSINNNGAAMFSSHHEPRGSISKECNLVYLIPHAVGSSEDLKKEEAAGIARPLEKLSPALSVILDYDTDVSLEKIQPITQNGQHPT
The target of series [19] is Glutamate receptor ionotropic, NMDA 2A (Rattus norvegicus) (UniProt Q00959). The series is described as follows: NMDA/R Cerep selectivity data (BI). As to conditions: Compound concentration 10.0 uM.
For series [20], the target named is Neuronal acetylcholine receptor; alpha4/beta2 (Homo sapiens) (UniProt P17787+P43681). The series is described as follows: N_NEURO_A4B2 Cerep selectivity data (BI). Format: protein-complex assay. Particulars: filed as agonist, Compound concentration 10.0 uM.
Series [21] has as its target 3',5'-cyclic-AMP phosphodiesterase 4D (Homo sapiens) (UniProt Q08499). The series is described as follows: PDE4D2 Cerep selectivity data (BI). Particulars: Compound concentration 10.0 uM.
For series [22], the target named is Beta-2 adrenergic receptor (Homo sapiens) (UniProt P07550). As to conditions: Compound concentration 10.0 uM.
Sequence of Beta-2 adrenergic receptor (Homo sapiens) (P07550 whole entry, looked up): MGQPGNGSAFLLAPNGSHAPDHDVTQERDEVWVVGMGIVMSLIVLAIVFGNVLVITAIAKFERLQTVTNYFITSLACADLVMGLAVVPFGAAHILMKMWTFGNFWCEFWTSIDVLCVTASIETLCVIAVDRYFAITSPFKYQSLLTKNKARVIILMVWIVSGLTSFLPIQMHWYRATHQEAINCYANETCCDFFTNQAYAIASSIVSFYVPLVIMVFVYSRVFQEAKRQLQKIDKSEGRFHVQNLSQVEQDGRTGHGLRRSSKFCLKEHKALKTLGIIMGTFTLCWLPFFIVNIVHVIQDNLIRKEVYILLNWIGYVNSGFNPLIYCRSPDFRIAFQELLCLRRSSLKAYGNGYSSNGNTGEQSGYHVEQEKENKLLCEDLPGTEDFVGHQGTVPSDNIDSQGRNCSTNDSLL

Sequence of Vasopressin V1a receptor (Homo sapiens) (P37288 whole entry, looked up): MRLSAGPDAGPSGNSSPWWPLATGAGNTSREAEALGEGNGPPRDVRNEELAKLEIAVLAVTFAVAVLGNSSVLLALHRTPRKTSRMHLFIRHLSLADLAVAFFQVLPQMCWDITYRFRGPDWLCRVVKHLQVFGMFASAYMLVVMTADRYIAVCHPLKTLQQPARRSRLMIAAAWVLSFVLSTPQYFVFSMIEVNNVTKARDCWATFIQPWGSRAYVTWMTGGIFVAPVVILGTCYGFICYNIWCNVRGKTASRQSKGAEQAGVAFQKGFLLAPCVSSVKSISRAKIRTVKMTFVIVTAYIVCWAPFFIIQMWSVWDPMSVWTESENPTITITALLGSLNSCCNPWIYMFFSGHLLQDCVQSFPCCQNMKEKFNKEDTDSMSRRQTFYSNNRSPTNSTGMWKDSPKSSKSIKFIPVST
Sequence of Cannabinoid receptor 2 (Homo sapiens) (P34972 whole entry): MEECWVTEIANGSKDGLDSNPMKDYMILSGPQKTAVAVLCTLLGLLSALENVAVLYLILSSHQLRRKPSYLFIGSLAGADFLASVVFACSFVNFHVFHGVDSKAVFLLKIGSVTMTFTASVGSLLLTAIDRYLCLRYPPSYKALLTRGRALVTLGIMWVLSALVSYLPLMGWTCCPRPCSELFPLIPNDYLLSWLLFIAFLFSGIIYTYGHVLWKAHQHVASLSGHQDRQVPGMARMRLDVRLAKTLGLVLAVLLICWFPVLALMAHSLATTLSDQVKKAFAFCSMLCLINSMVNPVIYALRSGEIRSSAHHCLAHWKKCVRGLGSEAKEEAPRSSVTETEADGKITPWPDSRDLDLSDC
Sequence of 3',5'-cyclic-AMP phosphodiesterase 4D (Homo sapiens) (Q08499 whole entry): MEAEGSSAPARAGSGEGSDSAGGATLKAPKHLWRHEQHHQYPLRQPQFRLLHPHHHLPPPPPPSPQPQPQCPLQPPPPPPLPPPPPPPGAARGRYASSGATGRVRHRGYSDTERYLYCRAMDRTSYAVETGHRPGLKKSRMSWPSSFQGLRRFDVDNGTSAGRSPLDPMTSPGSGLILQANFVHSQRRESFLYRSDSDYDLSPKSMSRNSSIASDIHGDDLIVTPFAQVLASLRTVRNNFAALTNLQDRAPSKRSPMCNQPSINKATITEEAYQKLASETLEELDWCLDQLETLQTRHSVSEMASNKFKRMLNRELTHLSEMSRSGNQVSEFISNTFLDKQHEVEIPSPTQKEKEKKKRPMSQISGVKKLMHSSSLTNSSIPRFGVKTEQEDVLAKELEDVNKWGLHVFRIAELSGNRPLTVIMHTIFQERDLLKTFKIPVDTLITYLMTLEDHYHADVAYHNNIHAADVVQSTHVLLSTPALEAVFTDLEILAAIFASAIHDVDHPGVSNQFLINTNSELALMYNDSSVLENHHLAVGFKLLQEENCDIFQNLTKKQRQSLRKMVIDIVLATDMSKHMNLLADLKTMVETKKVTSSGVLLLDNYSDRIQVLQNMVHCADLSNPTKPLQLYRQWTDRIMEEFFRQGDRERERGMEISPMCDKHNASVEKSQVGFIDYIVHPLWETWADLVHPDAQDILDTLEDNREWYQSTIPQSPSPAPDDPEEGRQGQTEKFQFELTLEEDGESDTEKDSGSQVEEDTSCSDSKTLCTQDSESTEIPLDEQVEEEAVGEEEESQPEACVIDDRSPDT
Sequence of Tyrosine-protein kinase Lck (Homo sapiens) (P06239 2-509 limits assumed): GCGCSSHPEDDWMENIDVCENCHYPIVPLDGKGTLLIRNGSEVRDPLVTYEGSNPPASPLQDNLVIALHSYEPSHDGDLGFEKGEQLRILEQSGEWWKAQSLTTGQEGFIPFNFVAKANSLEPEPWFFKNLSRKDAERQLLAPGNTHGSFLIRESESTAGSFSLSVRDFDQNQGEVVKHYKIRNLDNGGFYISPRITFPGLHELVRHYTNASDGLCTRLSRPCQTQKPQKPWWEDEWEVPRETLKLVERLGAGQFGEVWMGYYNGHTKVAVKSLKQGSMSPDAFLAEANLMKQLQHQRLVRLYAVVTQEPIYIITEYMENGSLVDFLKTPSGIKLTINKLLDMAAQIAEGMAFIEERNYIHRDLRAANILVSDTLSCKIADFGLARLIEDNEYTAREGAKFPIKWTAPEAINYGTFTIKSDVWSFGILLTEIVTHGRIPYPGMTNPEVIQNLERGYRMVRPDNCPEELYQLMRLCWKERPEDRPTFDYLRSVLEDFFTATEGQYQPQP
Sequence of Sodium-dependent serotonin transporter (Homo sapiens) (P31645 whole entry, looked up): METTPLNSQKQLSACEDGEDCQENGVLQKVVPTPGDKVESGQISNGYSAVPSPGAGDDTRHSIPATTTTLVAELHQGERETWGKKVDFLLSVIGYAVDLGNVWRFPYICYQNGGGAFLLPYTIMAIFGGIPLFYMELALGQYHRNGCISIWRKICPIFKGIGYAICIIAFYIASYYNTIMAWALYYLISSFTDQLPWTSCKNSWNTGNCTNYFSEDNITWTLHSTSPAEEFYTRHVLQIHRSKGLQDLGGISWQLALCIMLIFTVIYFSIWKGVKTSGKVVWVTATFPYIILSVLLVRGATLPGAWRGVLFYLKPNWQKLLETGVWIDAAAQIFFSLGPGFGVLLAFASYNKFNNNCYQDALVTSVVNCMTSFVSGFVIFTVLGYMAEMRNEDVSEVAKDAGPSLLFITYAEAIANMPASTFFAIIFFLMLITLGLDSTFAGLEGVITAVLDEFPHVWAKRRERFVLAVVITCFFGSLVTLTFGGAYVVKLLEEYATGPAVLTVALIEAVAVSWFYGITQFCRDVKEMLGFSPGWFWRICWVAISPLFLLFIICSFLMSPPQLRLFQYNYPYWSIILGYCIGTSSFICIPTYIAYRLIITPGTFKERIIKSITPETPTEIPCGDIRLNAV

As to `O=C(NC[C@@H]1[C@H]2CN(C(=O)OCc3cc(C(F)(F)F)cc(C(F)(F)F)c3)C[C@@H]12)c1ccc2[nH]nnc2c1` [BI 2545], the residual activity in series [1] was 97%; in series [2] it was 100%; in series [3], 92%; in series [4], 66%; in [5] it was 94%; in series [6] it was 77%. In addition, the residual activity in [7] is 136%; in series [9], 86%; in series [11], 67%; in [12], 39%; in series [13] it was 81%; in [14] it was 95%. For the same compound, the residual activity was 96% in [15]; 80% in series [16]; 76% in series [17]; 92% in [18]; 100% in series [19]; 111% in series [20]. For the same compound, in series [21], the residual activity is 98%. For the same compound, the activity at 10 µM on hERG (KCNH2) was 71% (not active). Also, the Ki in series [8] was found to be 8.68 µM; in series [10], 3.55 µM.

With `Cc1nccc(COC(=O)N2C[C@@H]3[C@@H](CNC(=O)c4ccc5[nH]nnc5c4)[C@@H]3C2)n1` [BI 3017], the inhibition in series [22] was -9.93%.

A word on the Ki: it is the dissociation constant of the complex between target and ligand, obtained from inhibition or displacement. Usually inhibition stands for the change of the read-out against control, counted positive when it falls.
